{
  "source": "paper PMC9329353",
  "about": "“Structures of Atm1 provide insight into [2Fe-2S] cluster export from mitochondria” (Nature Communications, 2022)",
  "key": {"CtAtm1 [1]": {"target": "T1, CtAtm1 (Thermochaetoides thermophila, UniProt G0SBE6, E603Q)", "T1 construct": "gene CTHT_0050000; full-length, C-terminal TEV site and His8 (pET-52b-CtATM1-TEV-His8), E. coli C43(DE3); DDM or MSP1D1 nanodiscs; homodimer; first 94 and last 26 residues not modelled (580 modelled)", "T1 sequence (G0SBE6 entry or part of it E603Q)": "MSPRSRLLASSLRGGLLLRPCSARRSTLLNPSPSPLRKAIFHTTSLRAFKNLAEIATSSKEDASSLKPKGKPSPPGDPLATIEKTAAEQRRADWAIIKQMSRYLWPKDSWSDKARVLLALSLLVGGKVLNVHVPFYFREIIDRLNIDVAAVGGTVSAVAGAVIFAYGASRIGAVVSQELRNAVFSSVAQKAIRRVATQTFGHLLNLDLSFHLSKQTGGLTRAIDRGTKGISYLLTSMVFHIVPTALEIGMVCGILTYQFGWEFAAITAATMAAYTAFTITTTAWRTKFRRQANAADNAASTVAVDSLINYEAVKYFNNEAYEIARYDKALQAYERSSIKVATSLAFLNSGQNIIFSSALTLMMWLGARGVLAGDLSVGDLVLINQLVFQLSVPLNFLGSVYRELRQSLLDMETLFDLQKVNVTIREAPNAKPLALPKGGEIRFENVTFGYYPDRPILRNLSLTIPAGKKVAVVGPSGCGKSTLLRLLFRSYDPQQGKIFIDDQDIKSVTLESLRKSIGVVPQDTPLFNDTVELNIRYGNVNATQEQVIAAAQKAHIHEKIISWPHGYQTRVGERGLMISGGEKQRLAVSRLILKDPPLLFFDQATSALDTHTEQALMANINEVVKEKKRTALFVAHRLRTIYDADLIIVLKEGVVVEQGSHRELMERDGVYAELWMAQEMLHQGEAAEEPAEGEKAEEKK", "experiment": "cryo-EM structure, […] Å", "details": "nanodiscs, 1 mM ATP, 1 mM GSSG, 1 mM MgCl2; occluded state; nucleotide-binding domains"}, "CtAtm1 [2]": {"target": "T2, CtAtm1 (Thermochaetoides thermophila, UniProt G0SBE6)", "T2 construct": "gene CTHT_0050000; full-length, C-terminal TEV site and His8 (pET-52b-CtATM1-TEV-His8), E. coli C43(DE3); DDM or MSP1D1 nanodiscs; homodimer; first 94 and last 26 residues not modelled (580 modelled)", "T2 sequence (G0SBE6 entry or part of it)": "as the sequence (G0SBE6 entry or part of it E603Q) above, with Q603E counted along it", "experiment": "ATPase assay (phosphate release, absorbance at […] nm)", "assay_type": "biochemical", "details": "1 mM ATP, 5 mM MgCl2, 37 °C, detergent or nanodisc; no exogenous cargo"}, "[3]": {"target": "CtAtm1 (ABC transporter of mitochondria 1 from Chaetomium thermophilum), wild type (Chaetomium thermophilum)", "experiment": "cryo-EM structure; wild-type CtAtm1 in lipid nanodiscs (MSP1D1), incubated with 1 mM ATP and 2 mM MgCl2 for 30 min on ice, no cargo added; inward-facing open state, 3.0 Å"}},
  "data": [
    {"compound": "Nc1ncnc2c1ncn2[C@@H]1O[C@H](COP(=O)(O)OP(=O)(O)OP(=O)(O)O)[C@@H](O)[C@H]1O", "note": "[ATP]", "values": [
      {"measurement": "cryo-EM structure, 2.8 Å", "setting": "CtAtm1 [1]", "result": "two ATP molecules are readily identified in the cryo-EM density"},
      {"measurement": "ATPase assay (phosphate release, absorbance at 620 nm)", "setting": "CtAtm1 [2]", "result": "exhibited clear and comparably robust ATP hydrolysis activity in detergent solution"}
    ]},
    {"compound": "CtAtm1 (ABC transporter of mitochondria 1 from Chaetomium thermophilum), wild type (natural protein)", "values": [
      {"measurement": "stoichiometry N", "setting": "[3]", "result": 2}
    ]}
  ]
}
